These results are taken from patent US20220403326A1, “MEDIA FORMULATIONS AND METHODS FOR PRODUCING PROGENITOR T CELLS” (priority 2019, published 2022).

The subject of one test is CD34+ HSPCs. The test is described as follows: Definitive screening design cytokine screen for proT cell differentiation and expansion. Type of test: cell-based, human. The protocol: For experiments 7 days or longer, HSPCs were seeded at 63-125 cells/mm^2 (equivalent to 2000-4000 cells/well of a 96-well plate) on DL4+VCAM-1-coated surfaces. Experiments shorter than 7 days (CFSE and qPCR) were seeded at 470-780 cells/mm^2 (equivalent to 15,000-25,000 cells/well of a 96-well plate) to provide enough cells for analysis. Cells were cultured in 100 μl/well (32 μl/well for 384-well plate) of Iscove's Modified Eagle Medium (IMDM) supplemented with 20% bovine serum albumin, insulin, and transferrin (BIT 9500) serum substitute (Stemcell Technologies), 1 μg/ml low-density lipoprotein (LDL; Stemcell Technologies), 60 μM ascorbic acid (Sigma), 24 μM 2-mercaptoethanol (Sigma), and 1% penicillin-streptomycin (P/S; Invitrogen). The cytokines used in control condition were SCF, FLT3L, TPO, and IL-7 (also known as the “4F cytokines”, all of which were obtained from R&D Systems), each at a concentration of 20 ng/ml or 100 ng/ml as indicated in the text. All other cytokines were purchased from R&D Systems and used in the combinations and concentrations indicated in the text. For certain experiments, the γ-secretase inhibitor (2S)-N-[(3,5-Difluorophenyl)acetyl]-L-alanyl-2-phenyl] glycine 1,1-dimethylethyl ester (DAPT) or dimethyl sulfoxide (DMSO) was added to media at the concentrations indicated in the text.
For screening experiments, a Definitive Screening Design (DSD)^7 was employed where each factor was tested at three levels (scaled to [−1,0,1]). The design included at least 2m+1 runs, where m is the number of factors, comprised of m fold-over pairs plus a center run (with all factors at level 0) and with orthogonal blocking of UCB donors.^8
Absolute cell numbers were acquired for each cell population of interest and, for initial experiments, a z-score was calculated relative to the control condition:
where SE(⋅) is the standard error. Control conditions were the cytokines used previously in the DL4+VCAM-1 assay as in Shukla et al.^6 Stepwise regression using the minimum Bayesian information criterion method was used to determine significant terms and, from this, a linear regression model of z-scores was constructed that included main and quadratic effects and two-factor interactions. This provided a better- or worse-than estimate for each factor compared to the control. The DSD layout and regression model were constructed using JMP 13 software (SAS). Follow up experiments measuring the dose response of top factors, the regression model was fit to the absolute cell count. Values were square root or log-transformed as necessary to ensure that residuals were approximately normal before fitting the regression model.
Test conditions were arranged using serial dilutions of each cytokine and laid out using an Eppendorf epMotion 5070 liquid handler in 384-well plates previously coated with DL4 and VCAM-1.
To identify factors that enhance proT cell differentiation and expansion, a two-part screen was conducted from day 0-7 and day 7-14 to separate the effects of screened molecules on HSPCs and differentiating proT cells (FIG. 1a). Screened molecules were tested at three doses each in combination using a definitive screening design (DSD) experiment and a linear regression model was fit to empirical data to estimate dose response.^7 The response to factors was measured against a control condition that contained SCF, FLT3L, TPO and IL-7 cytokines as in Shukla et al.^6 but using a lower concentration of 20 ng/ml each.
Medium gray indicates the effect of the control condition; dark gray to black indicates an effect greater than the control condition; and light gray to white indicates an effect lesser than the control condition. The size of each circle indicates the significance of the effect in the linear regression model. Combinations of factors indicate two-factor interactions (e.g., TPO*IL-1β) or quadratic effects (e.g., IL-21*IL-21) in the regression model. […] IL-3 and TNFα were selected for further investigation. […]

A further test concerns HSPCs. The test is described as follows: CFSE proliferation assay of HSPCs on DL4+VCAM-1. Type of test: cell-based, human. The protocol:
To track the number of cell divisions, cells were stained with 2.5 μM CellTrace™ CFSE (ThermoFisher) in PBS and incubated at 37° C. for 8 minutes. CFSE was quenched by adding 5 times the volume of IMDM+BIT and incubating at 37° C. for 5 minutes. Cells were then resuspended in fresh media and seeded on DL4+VCAM-1 for culture. For analysis, cells were collected and stained for CD34, CD7, and CD5 surface markers as described above and analyzed using flow cytometry. Proliferation was modelled using FlowJo™ software and further analysis was performed with R.
To track the number of cell divisions in response to each of IL-3 and TNFα, the HSPCs were first stained with carboxyfluorescein succinimidyl ester (CFSE). IL-3 or TNFα were added on day 0 and the number of divisions of each cell was analyzed on days 2, 3, 4 and 5.

Consider TNFα, for which the “effect on total live cells, CD7+ lymphocytes and CD7+CD5+ cells relative to the control condition” value in the test with CD34+ HSPCs (day 0-7 and day 7-14, control SCF, FLT3L, TPO, IL-7 at 20 ng/ml each, linear regression model) is listed as “string positive effects”. In addition, in the test with CD34+ HSPCs (range of concentrations, n=2 UCB donors), the “dose response of live cells, CD7+ lymphocytes and CD7+CD5+ proT cells” value is reported as “curved response in at least one population”. In addition, the “proportion of proT2 (CD34+CD7+CD5+) cells” value in the test with HSPCs (day 5) is “higher proportion of proT2 cells”. Also, the “upregulation of CD7” value in the test on HSPCs (days 2-5) is on record as “slow to upregulate CD7”.
